This note sets out measurements from patent publication US12173018B2, “Penicillin-binding protein inhibitors” (priority 2018, dated 2024).

Where two headings read alike, the source gives them in different places. A value given as a limit tells only on which side of the number the result lay.

The subject of experiment [1] is E. coli AG100. In words: Broth microdilution MIC, E. coli AG100 (wild-type parent). It counts as cell-based. To be noted: Escherichia coli; wild-type parent E. coli AG100, broth microdilution; read-out: MIC E. coli AG100. As for the experimental part:
To determine the ability of test compounds to potentiate the inhibition of the growth of bacterial strains, classic cell based broth microdilution minimum inhibitory concentration (MIC) assays were employed.
(§1) Briefly, cryo-preserved bacterial cultures of challenge strains are streaked for isolation on appropriate agar medium, in this case Mueller Hinton II agar. Following incubation to allow growth of the colonies, plates are sealed with parafilm and stored refrigerated for up to two weeks. For preparation of assay inoculum and to ensure low variability, at least 5 colonies are picked from the agar plates with an inoculating loop and aseptically transferred to a culture tube containing 3 mL of Mueller-Hinton Broth (supplemented with divalent cations to required levels based on Manufacturers' certification). The broth culture is grown for 3-5 hours at 37° C. with shaking at 200 rpm. Meanwhile, 2-fold serial dilutions of test compounds are conducted in a 96 well plate with a final volume of 75 μL per well at 2-fold the final desired concentration. After the dilution plates are set up the growing cultures are then diluted in a cuvette containing MH II broth and the optical density is measured at 600 nm. The Inoculum is diluted such that 75 μL of this culture in Mueller-Hinton Broth results in a starting bacterial concentration of 5×10^5 CFU/mL when added to the dilution plates. The plates are incubated for 16-20 hours at 37° C. The MIC values are read visually as the lowest concentration well with no bacterial growth.
A general note: Dilution methods test growth across graded concentrations, often in twofold steps.

Experiment [2] deals with E. coli ATCC 25922. Put plainly: Broth microdilution MIC, E. coli ATCC 25922. It counts as cell-based. To be noted: Escherichia coli. How it is done:
(§2) To determine the ability of test compounds to potentiate the inhibition of the growth of bacterial strains, classic cell based broth microdilution minimum inhibitory concentration (MIC) assays were employed. MIC assays are performed according to CLSI methods except where otherwise noted (CLSI, 2011 and CLSI, 2009). The reference type strain E. coli ATCC 25922, the wild-type parent strain E. coli AG100, the hyper-permeable E. coli 901C and E. coli D22 and the E. coli AG100A strain lacking the acrAB efflux pump encoding genes were used to determine the ability of the PBP inhibitors to penetrate the outer membrane of gram-negative bacteria and inhibit bacterial growth. […] The P. aeruginosa PAO1, P. aeruginosa ATCC 27853 and A. baumannii ATCC 19606, along with the hyper-permeable P. aeruginosa ATCC 35151 and an engineered efflux pump-compromised strain of P. aeruginosa (ΔmexAB-oprM) were used to determine the ability of PBP inhibitors to penetrate the outer membrane of P. aeruginosa and A. baumannii and assess antibacterial activity against these important gram-negative organisms.
as §1

For experiment [3], the system named is E. coli 901C. In words: microbe, parasite or virus in culture. It counts as cell-based. To be noted: Escherichia coli; hyper-permeable E. coli 901C, broth microdilution; read-out: MIC E. coli 901C. How it is done: as §2, §1
The test system of experiment [4] is E. coli AG100A. Put plainly: microbe, parasite or virus in culture. The note with it: Escherichia coli, read-out: MIC E. coli AG100A. The experiment is classed as cell-based. How it is done: as §2, §1
Experiment [5] relates to K. pneumoniae UMM. Put plainly: microbe, parasite or virus in culture. It counts as cell-based. The note with it: Klebsiella pneumoniae; K. pneumoniae UMM producing SHV-5 and KPC-2; read-out: MIC K. pneumoniae UMM. As for the experimental part: as §2, §1
The subject of experiment [6] is K. pneumoniae SI-117. Put plainly: microbe, parasite or virus in culture. It counts as cell-based. The note with it: Klebsiella pneumoniae, SI117, read-out: MIC K. pneumoniae SI-117. How it is done:
as §2, §1

For experiment [7], the target named is E. coli PBP3 (Escherichia coli (strain K12), UniProt P0AD68). Put plainly: E. coli PBP3 Bocillin-FL fluorescence polarization competition binding assay. From the text: To determine the ability of boronic acid-based test PBP inhibitors to bind Penicillin Binding Proteins (PBPs), Bocillin-FL (fluorescently-labeled penicillin V; ThermoFisher Scientific) was used in a fluorescence polarization (FP) competition binding assay to assess inhibitor binding to PBP2, PBP3 or PBP4 from Escherichia coli. PBPs were cloned and purified as described previously (King, D. T, et al., ACS Infectious Diseases 2015, 1, 175-184). To establish assay conditions for competition binding, an enzyme titration/saturation binding experiment was initially performed. Bocillin-FL was prepared at 0.2 μM in a buffer comprised of 50 mM Hepes (pH 8.0), 300 mM NaCl and 5% (v/v) glycerol. Saturation binding was performed by mixing 40 μl of PBP solutions ranging in concentrations from 0-12 μM with 40 μl of the 0.2 μM Bocillin-FL solution, in individual wells of a black 384-well microplate. FP was measured immediately upon mixing (Excitation, 490 nm; Emission, 520 nm; g-factor, 0.96), using a Cytation3 (BioTek) microplate reader and measured continuously for up to 120 minutes. […] Assays (80 μl final volume) were performed with PBPs at a final concentration of 1.5 μM, Bocillin-FL at 0.1 μM and beta-lactam concentrations that ranged from 0-1000 μM. […] Bocillin-FL was added and the FP immediately measured for 60 minutes (90 minutes for PBP2). The beta-lactam potency was reported as the concentration of beta-lactam required to reduce binding of Bocillin-FL by […] (EC50). […] Binding assays for boronic acid PBP inhibitors were performed in an identical fashion.
For orientation: Polarisation of emitted light reports the rotation of a fluorescent probe.

Experiment [8] deals with E. coli D22. In words: microbe, parasite or virus in culture. It counts as cell-based. The note with it: Escherichia coli; hyper-permeable E. coli D22, broth microdilution; read-out: MIC E. coli D22. How it is done: as §2, §1
Experiment [9] relates to K. pneumoniae 848844. In words: microbe, parasite or virus in culture. The experiment is classed as cell-based, Klebsiella pneumoniae. The note with it: Klebsiella pneumoniae; K. pneumoniae 848844 producing SHV-11 and KPC-2; read-out: MIC K. pneumoniae 848844. How it is done:
as §2, §1

The mark [10] stands for this setting: ATCC25922, read-out: MIC E. coli 25922.
[11] abbreviates: ATCC25922, E. coli ATCC 25922, broth microdilution, read-out: MIC E. coli 25922.

Chain of E. coli PBP3 (P0AD68 whole entry): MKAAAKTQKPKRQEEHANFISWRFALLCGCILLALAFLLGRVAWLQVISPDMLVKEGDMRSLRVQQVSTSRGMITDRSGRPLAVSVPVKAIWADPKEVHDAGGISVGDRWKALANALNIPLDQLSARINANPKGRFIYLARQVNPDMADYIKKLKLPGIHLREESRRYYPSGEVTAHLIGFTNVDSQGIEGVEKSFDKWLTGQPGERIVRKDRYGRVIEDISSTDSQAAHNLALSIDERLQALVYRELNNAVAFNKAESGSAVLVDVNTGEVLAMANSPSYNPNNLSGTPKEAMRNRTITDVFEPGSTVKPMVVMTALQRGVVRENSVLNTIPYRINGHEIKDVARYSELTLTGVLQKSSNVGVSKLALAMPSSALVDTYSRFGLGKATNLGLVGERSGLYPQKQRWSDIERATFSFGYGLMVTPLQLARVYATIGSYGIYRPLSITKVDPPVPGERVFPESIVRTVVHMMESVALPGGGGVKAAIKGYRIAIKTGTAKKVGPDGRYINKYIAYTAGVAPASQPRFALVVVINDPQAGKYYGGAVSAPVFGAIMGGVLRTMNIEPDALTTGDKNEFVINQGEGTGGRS

In the case of `CCNC(=O)NC(C(=O)N[C@H]1Cc2cccc(C(=O)O)c2OB1O)c1csc(N)n1` (stereo partly drawn) [Example 6, (3R)-3-(2-(2-aminothiazol-4-yl)-2-(3-ethylureido)acetamido)-2-hydroxy-3,4-dihydro-2H-benzo[e][1,2]oxaborinine-8-carboxylic acid], the MIC was greater than 128 µg/mL in experiment [1]; greater than 128 µg/mL in experiment [2] (setting [10]); 8 to 16 µg/mL in [3]; 8 to 16 µg/mL in experiment [4]; greater than 128 µg/mL in experiment [5].

Consider `Nc1nc(C(NS(=O)(=O)c2cccnc2)C(=O)N[C@H]2Cc3cccc(C(=O)O)c3OB2O)cs1` (stereo partly drawn) [Example 7, (3R)-3-(2-(2-aminothiazol-4-yl)-2-(pyridine-3-sulfonamido)acetamido)-2-hydroxy-3,4-dihydro-2H-benzo[e][1,2]oxaborinine-8-carboxylic acid], for which the MIC in [1] is greater than 128 µg/mL; in experiment [2] (setting [10]), greater than 128 µg/mL; in [3], 8 to 16 µg/mL; in experiment [4], 32 to 64 µg/mL; in [5], greater than 128 µg/mL.

Regarding `CCN1CCN(C(=O)N[C@@H](C)C(=O)N[C@H]2Cc3cccc(C(=O)O)c3OB2O)C(=O)C1=O` [Example 8, (R)-3-((S)-2-(4-Ethyl-2,3-dioxopiperazine-1-carboxamido)propanamido)-2-hydroxy-3,4-dihydro-2H-benzo[e][1,2]oxaborinine-8-carboxylic acid], the MIC in experiment [1], in [2] (setting [10]), in experiment [3], in [4], in experiment [6] and in experiment [5] was greater than 128 µg/mL each time.

In the case of `CCCN1CCN(C(=O)NC(C(=O)N[C@H]2Cc3cccc(C(=O)O)c3OB2O)c2ccc(O)cn2)C(=O)C1=O` (stereo partly drawn) [Example 134, (3R)-3-(2-(2,3-dioxo-4-propylpiperazine-1-carboxamido)-2-(5-hydroxypyridin-2-yl)acetamido)-2-hydroxy-3,4-dihydro-2H-benzo[e][1,2]oxaborinine-8-carboxylic acid], the MIC in experiment [1] lay in the range of 32 to 64 µg/mL; in experiment [2] (setting [11]), 32 to 64 µg/mL; in experiment [8], 8 to 16 µg/mL; in experiment [3] it was 2 to 4 µg/mL; in experiment [4], 8 to 16 µg/mL; in experiment [6], 32 to 64 µg/mL. The MIC in experiment [5] and in experiment [9] was 32 to 64 µg/mL in each case. The EC50 in [7] (fluorescence polarization competition binding with Bocillin-FL, read-out: E. coli K12 PBP3 Potency) was less than 30 µM.

With `CCN1CCN(C(=O)NC(C(=O)N[C@H]2Cc3cccc(C(=O)O)c3OB2O)c2ccc(O)c(O)n2)C(=O)C1=O` (stereo partly drawn) [Example 140, (3R)-3-(2-(5,6-dihydroxypyridin-2-yl)-2-(4-ethyl-2,3-dioxopiperazine-1-carboxamido)acetamido)-2-hydroxy-3,4-dihydro-2H-benzo[e][1,2]oxaborinine-8-carboxylic acid], the MIC lay within 32 to 64 µg/mL in experiment [1]; 8 to 16 µg/mL in [2] (setting [11]); 2 to 4 µg/mL in [8]; 0.5 to 1 µg/mL in [3]; 2 to 4 µg/mL in experiment [4]; 32 to 64 µg/mL in experiment [6]. Moreover, the MIC in [5] was 8 to 16 µg/mL; in experiment [9], 32 to 64 µg/mL. This molecule also yielded an EC50 in [7] of 30 to 500 µM.

On to `CCN1CCN(C(=O)NC(C(=O)N[C@H]2Cc3ccc(F)c(C(=O)O)c3OB2O)c2cccnc2)C(=O)C1=O` (stereo partly drawn) [Example 141, (3R)-3-(2-(4-ethyl-2,3-dioxopiperazine-1-carboxamido)-2-(pyridin-3-yl)acetamido)-7-fluoro-2-hydroxy-3,4-dihydro-2H-benzo[e][1,2]oxaborinine-8-carboxylic acid], for which the MIC in experiment [1] was greater than 128 µg/mL; in experiment [2] (setting [11]), greater than 128 µg/mL; in experiment [8], 8 to 16 µg/mL; in experiment [3], 2 to 4 µg/mL; in experiment [4], 32 to 64 µg/mL; in [6], greater than 128 µg/mL. Moreover, the MIC was 32 to 64 µg/mL in experiment [5] and greater than 128 µg/mL in [9]. The EC50 in experiment [7] fell in the range of 30 to 500 µM.

With `CCN1CCN(C(=O)NC(C(=O)N[C@H]2Cc3cccc(C(=O)O)c3OB2O)c2ccc(O)c(S(N)(=O)=O)c2)C(=O)C1=O` (stereo partly drawn) [Example 143, (3R)-3-(2-(4-ethyl-2,3-dioxopiperazine-1-carboxamido)-2-(4-hydroxy-3-sulfamoylphenyl)acetamido)-2-hydroxy-3,4-dihydro-2H-benzo[e][1,2]oxaborinine-8-carboxylic acid], the MIC in experiment [1] is 32 to 64 µg/mL; in experiment [2] (setting [11]) it was 32 to 64 µg/mL; in [8], 2 to 4 µg/mL; in experiment [3], less than 0.25 µg/mL; in experiment [4], 2 to 4 µg/mL; in experiment [6], greater than 128 µg/mL. Also, the MIC in experiment [5] was 32 to 64 µg/mL; in [9], greater than 128 µg/mL.

Take `CCN1CCN(C(=O)NC(C(=O)N[C@H]2Cc3cccc(C(=O)O)c3OB2O)c2ccc(OC)c(S(N)(=O)=O)c2)C(=O)C1=O` (stereo partly drawn) [Example 144, (3R)-3-(2-(4-ethyl-2,3-dioxopiperazine-1-carboxamido)-2-(4-methoxy-3-sulfamoylphenyl)acetamido)-2-hydroxy-3,4-dihydro-2H-benzo[e][1,2]oxaborinine-8-carboxylic acid]: the MIC was 8 to 16 µg/mL in experiment [1]; greater than 128 µg/mL in experiment [2] (setting [11]); 8 to 16 µg/mL in experiment [8]; 0.5 to 1 µg/mL in [3]; 8 to 16 µg/mL in experiment [4]; greater than 128 µg/mL in [6]. Also, the results for the MIC in experiment [5] and in experiment [9] were 32 to 64 µg/mL and greater than 128 µg/mL, respectively. In experiment [7], the EC50 lay within 30 to 500 µM.

For the molecule `CCN1CCN(C(=O)NC(C(=O)N[C@H]2Cc3cccc(C(=O)O)c3OB2O)c2ncc(C(=O)NCCO)cc2F)C(=O)C1=O` (stereo partly drawn) [Example 241, (3R)-3-(2-(4-ethyl-2,3-dioxopiperazine-1-carboxamido)-2-(3-fluoro-5-((2-hydroxyethyl)carbamoyl)pyridin-2-yl)acetamido)-2-hydroxy-3,4-dihydro-2H-benzo[e][1,2]oxaborinine-8-carboxylic acid], the MIC is greater than 128 µg/mL in experiment [1]; greater than 128 µg/mL in experiment [2] (setting [10]); 8 to 16 µg/mL in experiment [8]; 0.5 to 1 µg/mL in [3]; 8 to 16 µg/mL in experiment [4]; greater than 128 µg/mL in experiment [6]. Further, the MIC in experiment [5] and in experiment [9] was greater than 128 µg/mL in each case.
